The source made the active and inactive calls. The rule behind the calls is not given here.
Experiments:
Format in all cases: nucleic-acid assay
Quadruplex DNA [1] = test: Binding affinity to c-MYC G4 quadruplex DNA (unknown origin) by 1D 1H-NMR analysis
Quadruplex DNA [2] = test: Covalent binding affinity to RET G4 quadruplex DNA (unknown origin) assessed as alkylation at G4 base at 98 degC for 5 mins by DNA cleavage assay
Quadruplex DNA [3] = test: Covalent binding affinity to RET G4 quadruplex DNA (unknown origin) by measuring molecular weight for complex formation by ESI mass spectrum analysis
Quadruplex DNA [4] = test: Covalent binding affinity to RET G4 quadruplex DNA (unknown origin) assessed as stable complex formation by measuring molecular weight peak after 19 days by mass spectrum analysis; settings: time 19.0 day
Quadruplex DNA [5] = test: Induction of DNA stabilization in RET G4 quadruplex DNA (unknown origin) containing 2'-F base G4 assessed as melting temperature (reference value: 71.99 degreeC)
Quadruplex DNA [6] = test: Induction of DNA stabilization in abasic-basic RET G4 quadruplex DNA (unknown origin) assessed as melting temperature in 100 mM K+ buffer solution by DSC spectra analysis
Quadruplex DNA [7] = test: Covalent binding affinity to RET G4 quadruplex DNA (unknown origin) assessed as alkylation at G14 base by DNA cleavage assay
Quadruplex DNA [8] = test: Binding affinity to RET G4 quadruplex DNA (unknown origin) by measuring chemical shift change for 0 to 21 days by 1D 1H-NMR analysis; settings: time 0-21 day
Quadruplex DNA [9] = test: Covalent binding affinity to RET G4 quadruplex DNA (unknown origin) assessed as stable complex formation measured after 9 days by mass spectrum analysis; settings: time 9.0 day
Quadruplex DNA [10] = test: Covalent binding affinity to RET G4 quadruplex DNA (unknown origin) assessed as alkylation at G6 base by DNA cleavage assay
Quadruplex DNA [11] = test: Induction of DNA stabilization in free RET G4 quadruplex DNA (unknown origin) assessed as melting temperature in 100 mM K+ buffer solution by DSC spectra analysis

Activity (Quadruplex DNA [1]): Active
Activity (Quadruplex DNA [2]): Active
Activity (Quadruplex DNA [3]): 6450 Da
Activity (Quadruplex DNA [4]): 7330 Da
Tm (Quadruplex DNA [5]): 74.7 °C
Tm (Quadruplex DNA [6]): 78 °C
Activity (Quadruplex DNA [7]): inactive
Activity (Quadruplex DNA [8]): Active
Activity (Quadruplex DNA [9]): Active
Activity (Quadruplex DNA [10]): inactive
Tm (Quadruplex DNA [11]): 91 °C
SMILES: COc1c2c(c(O)c3c4c(c(C)cc13)C1O[C@@]3(C(OC)OC)OC1[C@](O[C@H]1C[C@@H](O)[C@@](O)(C(C)=O)[C@H](C)O1)(O4)C31CO1)C(=O)[C@@H](O)C[C@@H]2OC1C[C@](C)(O)[C@@H](OC(C)=O)[C@@H](C)O1 (stereo partly specified)
